Laboratory results: patent publication US10118891B2, “Organosulfur compounds for the prevention and treatment of neurodegenerative diseases” (Allium Vitalis, Inc., priority 2011, dated 2018)
Converted amounts (≈) assume the structure as drawn.

Columns and labels:
[1] = test system: protein carbonyls in synaptosomal membranes; settings: cited from earlier work
[2] = test system: Ehrilich ascites tumor cells; settings: intracellular concentrations up to 0.6 mM; cited from earlier work
[3] = experimental self-consumption by the applicant, tolerability; format: in vivo, human; settings: 240 mg/day for several weeks
[4] = cited from earlier work
[5] = test system: ischemia; settings: ischemia with elevation of HNE; cited from earlier work
[6] = partition coefficient (Log P), oil and water system; format: physicochemical; settings: worked out from Log P
Excerpt: Lipophilic molecule: Attracted to lipids. A molecule is lipophilic if it preferentially partitions into the oily side of an oil and water system.

[7] = oil and water system; cited from earlier work
[8] = test system: glutathione content of cells; settings: daily dosage of 1000 mg, multiple myeloma patients, with arsenic trioxide; cited from earlier work

CCOC(=O)CNC(=O)[C@H](CS)NC(=O)CC[C@H](N)C(=O)O [GEE, Glutathione Ethyl Ester]
protein carbonyls, % of Control ([1]; GEE alone, no acrolein): 85% | protein carbonyls, "GEE+Acrolein" bar ([1]; synaptosomal membranes pretreated with GEE (3 hours), then acrolein): 163 % of "Control"

CC(O)C=CC=O (stereo not drawn) [HPE]
effect on protein sulfhydryls or enzyme activities [2]: no effect | low molecular weight thiols [2]: depleted

C=CCS [allyl mercaptan, AllylThiol]
negative effects on consumption [3]: without any apparent negative effects | standard comprehensive blood test at the end of the experiment [3]: essentially normal | solubility in water [4]: 5000 µg/mL (≈ 67.4 mM)

CC1=NN(c2ccccc2)C(=O)C1 [edaravone]
effect of treatment in ischemia [5]: protective effect

CCCS [propyl mercaptan, 1-PropaneThiol]
ratio of concentration on the oily side to the aqueous side [6]: ~100 | partition coefficient (Log P) [7]: 1.95

O=C1O[C@H]([C@@H](O)CO)C(O)=C1O [vitamin C]
glutathione depletion, mean percentage decrease [8]: 60%

Acrolein
protein carbonyls, "C+Acrolein" bar ([1]; synaptosomal membranes, acrolein without GEE pretreatment): 552 % of "Control"
